In patent US10350271B2, “Lipidated peptides for lowering blood glucose” (USTAV ORGANICKE CHEMIE A BIOCHEMIE AKADEMIE VED CR, V.V.I., priority 2014, dated 2019):
Numbered stars: 1 amine (or outer) side, 2 acyl side, 3 side chain; on linkers, the order of the positions; unused ones are H or OH. Square brackets hold non-standard residues; d marks the D form. Side chains are listed from the residue outwards. Peptide text beside a SMILES is read from it. * marks the point of attachment. Phe(3,4-Cl2) = N[C@@H](Cc1ccc(Cl)c(Cl)c1)C(=O)O; γGlu = O=C(O)[C@H](CCC(=O)[*:2])N[*:1]; Palmitoyl = CCCCCCCCCCCCCCCC(=O)*; Myristoyl = CCCCCCCCCCCCCC(=O)*; Decanoyl = CCCCCCCCCC(=O)*; Nle = CCCC[C@H](N)C(=O)O

How the values were obtained:
[1] = biological target: T1, human PrRP receptor GPR10 (Homo sapiens, UniProt P49683); assay: Competitive binding in CHO cells transfected with human GPR10 (human 125I-PrRP31); settings: for % of PrRP31, GPR10 human receptor transfected in CHO cells: affinity relative to PrRP31; for Ki: CHO cells, human 125I-PrRP31, read-out: Ki, GPR10 human receptor transfected in CHO cells
T1 construct: host or cells: CHO cells
T1 sequence (P49683 1-370): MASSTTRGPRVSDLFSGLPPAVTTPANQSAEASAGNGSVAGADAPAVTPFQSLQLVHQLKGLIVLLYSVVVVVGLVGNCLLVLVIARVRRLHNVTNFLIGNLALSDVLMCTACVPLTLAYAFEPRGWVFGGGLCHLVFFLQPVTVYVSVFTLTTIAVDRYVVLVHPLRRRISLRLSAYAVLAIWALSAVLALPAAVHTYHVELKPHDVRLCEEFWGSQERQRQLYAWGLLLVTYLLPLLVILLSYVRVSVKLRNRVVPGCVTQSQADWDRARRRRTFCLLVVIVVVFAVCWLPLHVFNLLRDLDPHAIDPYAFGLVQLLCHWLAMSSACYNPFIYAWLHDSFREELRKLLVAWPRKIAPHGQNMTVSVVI
Summary of the method: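 GPR10-transfected CHO cells (40-80 thousand/well) incubated 60 min at room temperature with 5×10^-11 mol·l^-1 human 125I-PrRP31 and unlabeled analog at 10^-11 to 10^-4 mol·l^-1 in Tris binding buffer pH 7.4. Cells solubilized in 0.1 mol/l NaOH, γ-counted; one-site nonlinear regression fit.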

rat PrRP receptor = biological target: T2, rat PrRP receptor (Rattus norvegicus, UniProt Q64121); assay: Competitive binding in RC-4B/C rat pituitary cells (125I-rat PrRP31); settings: for % of PrRP31, RC-4B/C rat pituitary cells: affinity relative to PrRP31; for Ki: RC-4B/C cells, displacement of 125I-rat PrRP31, read-out: Ki, RC-4B/C rat pituitary cells ^25I-rat PrRP31
T2 construct: host or cells: RC-4B/C rat pituitary cell line
T2 sequence (Q64121 1-370): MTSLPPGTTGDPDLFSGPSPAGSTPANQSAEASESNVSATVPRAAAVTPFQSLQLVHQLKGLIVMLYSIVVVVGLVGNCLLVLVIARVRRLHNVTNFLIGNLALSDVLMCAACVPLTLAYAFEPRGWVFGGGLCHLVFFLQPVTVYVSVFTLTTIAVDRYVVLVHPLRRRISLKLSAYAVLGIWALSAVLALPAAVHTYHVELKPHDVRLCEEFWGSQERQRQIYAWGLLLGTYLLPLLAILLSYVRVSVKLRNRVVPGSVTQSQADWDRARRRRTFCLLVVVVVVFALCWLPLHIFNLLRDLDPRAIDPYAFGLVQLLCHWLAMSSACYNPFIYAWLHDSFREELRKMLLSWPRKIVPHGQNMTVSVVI
Summary of the method: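 Intact rat pituitary RC-4B/C cells incubated 60 min at room temperature with […] rat 125I-PrRP31 and unlabeled analog (10^−11 to 10^−4 mol·l^−1) in HEPES pH 7.4 buffer. Cell-bound radioactivity γ-counted after NaOH lysis; one-site competition fit.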

C57BL/6 mice = assay: Food intake in fasted mice after SC injection; type: in vivo; settings: 5 mg/kg SC, 45 min after injection
Description: NMRI mice, C57BL/6 mice, and Wistar rats (AnLab, Prague, Czech Republic) were housed in a temperature of 23° C. and a daily cycle of 12 h light and dark (light from 6:00). They were given ad libitum water and a standard chow diet that contained 25, 9 and 66% of calories of protein, fat and carbohydrate respectively. Energy content of the feed was 3.4 kcal/g (St-1, Mlýn Kocanda, Czech Republic). Db/db mice and their controls (C57BL/6 background) were obtained from Taconic (Denmark), housed under the same conditions as described above, and fed by Altromin (Taconic, Denmark). ZDF-Lepr^fa/Crl, diabetic fa/fa male rats were obtained from Charles River (France), housed under same conditions as described above, and fed with a Purina 5008 diet (IPS Product Supplies Limited, UK). All experiments followed the ethical guidelines for animal experiments and the law of the Czech Republic Nr. 246/1992.
In experiments with C57BL/6 mice or Wistar rats, food intake was measured with overnight fasted animals in individual cages. Food was withdrawn 17 hours prior to injection of lipidated analog of prolactin releasing peptide (PrRP); free access to water was maintained. The administration of either saline, PrRP, or lipidated analogs was performed by SC injection at doses of 1-10 mg/kg (which corresponded to a volume of 0.2 ml/mouse and 0.1 ml/100 g weight of rat). Fifteen minutes after the lipidated analog of prolactin releasing peptide (PrRP) administration, the mice were given pre-weighed food. The food was then weighed every 30 minutes for 5-10 hours. The administration of each dose was performed at least twice, and each group of mice consisted of at least 6 mice.

| SMILES | % of PrRP31, GPR10 human receptor transfected in CHO cells [1] [%] | % of PrRP31, RC-4B/C rat pituitary cells (rat PrRP receptor) [%] | Ki [1] [nM] | Ki (rat PrRP receptor) [nM] | Food intake in mice % of saline-treated group (C57BL/6 mice) [%] |
| --- | --- | --- | --- | --- | --- |
| CCCCCCCCCC(=O)N[C@@H](CO)C(=O)N[C@@H](CCCNC(=N)N)C(=O)N[C@@H](C)C(=O)N[C@@H](Cc1c[nH]cn1)C(=O)N[C@@H](CCC(N)=O)C(=O)N[C@@H](Cc1c[nH]cn1)C(=O)N[C@@H](CO)C(=O)N[C@@H](CCCC)C(=O)N[C@@H](CCC(=O)O)C(=O)N[C@H](C(=O)N[C@@H](CCCNC(=N)N)C(=O)N[C@H](C(=O)N1CCC[C@H]1C(=O)N[C@@H](CC(=O)O)C(=O)N[C@H](C(=O)N[C@@H](CC(N)=O)C(=O)N1CCC[C@H]1C(=O)N[C@@H](C)C(=O)N[C@@H](Cc1c[nH]c2ccccc12)C(=O)N[C@@H](Cc1ccc(O)cc1)C(=O)N[C@H](C(=O)NCC(=O)N[C@@H](CCCNC(=N)N)C(=O)NCC(=O)N[C@H](C(=O)N[C@@H](CCCNC(=N)N)C(=O)N1CCC[C@H]1C(=O)N[C@H](C(=O)NCC(=O)N[C@@H](CCCNC(=N)N)C(=O)N[C@@H](Cc1ccccc1)C(N)=O)C(C)C)[C@@H](C)CC)[C@@H](C)O)[C@@H](C)CC)[C@@H](C)O)[C@@H](C)O [Analog 5] (Decanoyl-SRAHQHS[Nle]ETRTPDINPAWYTGRGIRPVGRF-NH2) | 266 | 758 |  |  | 57 |
| CCCCCCCCCCCCCC(=O)N[C@@H](CO)C(=O)N[C@@H](CCCNC(=N)N)C(=O)N[C@@H](C)C(=O)N[C@@H](Cc1c[nH]cn1)C(=O)N[C@@H](CCC(N)=O)C(=O)N[C@@H](Cc1c[nH]cn1)C(=O)N[C@@H](CO)C(=O)N[C@@H](CCCC)C(=O)N[C@@H](CCC(=O)O)C(=O)N[C@H](C(=O)N[C@@H](CCCNC(=N)N)C(=O)N[C@H](C(=O)N1CCC[C@H]1C(=O)N[C@@H](CC(=O)O)C(=O)N[C@H](C(=O)N[C@@H](CC(N)=O)C(=O)N1CCC[C@H]1C(=O)N[C@@H](C)C(=O)N[C@@H](Cc1c[nH]c2ccccc12)C(=O)N[C@@H](Cc1ccc(O)cc1)C(=O)N[C@H](C(=O)NCC(=O)N[C@@H](CCCNC(=N)N)C(=O)NCC(=O)N[C@H](C(=O)N[C@@H](CCCNC(=N)N)C(=O)N1CCC[C@H]1C(=O)N[C@H](C(=O)NCC(=O)N[C@@H](CCCNC(=N)N)C(=O)N[C@@H](Cc1ccc(Cl)c(Cl)c1)C(N)=O)C(C)C)[C@@H](C)CC)[C@@H](C)O)[C@@H](C)CC)[C@@H](C)O)[C@@H](C)O [Analog 14] (Myristoyl-SRAHQHS[Nle]ETRTPDINPAWYTGRGIRPVGR[Phe(3,4-Cl2)]-NH2) | 409 | 275 | 0.95 ± 0.33 | 1.79 ± 1.02 | 13 |
| CCCCCCCCCCCCCCCC(=O)N[C@@H](CO)C(=O)N[C@@H](CCCNC(=N)N)C(=O)N[C@@H](C)C(=O)N[C@@H](Cc1c[nH]cn1)C(=O)N[C@@H](CCC(N)=O)C(=O)N[C@@H](Cc1c[nH]cn1)C(=O)N[C@@H](CO)C(=O)N[C@@H](CCCC)C(=O)N[C@@H](CCC(=O)O)C(=O)N[C@H](C(=O)N[C@@H](CCCNC(=N)N)C(=O)N[C@H](C(=O)N1CCC[C@H]1C(=O)N[C@@H](CC(=O)O)C(=O)N[C@H](C(=O)N[C@@H](CC(N)=O)C(=O)N1CCC[C@H]1C(=O)N[C@@H](C)C(=O)N[C@@H](Cc1c[nH]c2ccccc12)C(=O)N[C@@H](Cc1ccc(O)cc1)C(=O)N[C@H](C(=O)NCC(=O)N[C@@H](CCCNC(=N)N)C(=O)NCC(=O)N[C@H](C(=O)N[C@@H](CCCNC(=N)N)C(=O)N1CCC[C@H]1C(=O)N[C@H](C(=O)NCC(=O)N[C@@H](CCCNC(=N)N)C(=O)N[C@@H](Cc1ccccc1)C(N)=O)C(C)C)[C@@H](C)CC)[C@@H](C)O)[C@@H](C)CC)[C@@H](C)O)[C@@H](C)O [Analog 8] (Palmitoyl-SRAHQHS[Nle]ETRTPDINPAWYTGRGIRPVGRF-NH2) | 128 | 967 |  |  | 7 |

Now from value to compound, other results behind:

| % of PrRP31, GPR10 human receptor transfected in CHO cells [1] [%] | % of PrRP31, RC-4B/C rat pituitary cells (rat PrRP receptor) [%] | Ki [1] [nM] | Ki (rat PrRP receptor) [nM] | SMILES | Food intake in mice % of saline-treated group (C57BL/6 mice) [%] |
| --- | --- | --- | --- | --- | --- |
| 57 | 57 | 5.66 ± 0.39 | 4.23 ± 2.11 | CCCCCCCCCCCCCCCC(=O)N[C@@H](CCC(=O)NCCCC[C@H](NC(=O)[C@@H](NC(=O)[C@H](CCC(=O)O)NC(=O)[C@H](CCSC)NC(=O)[C@H](CO)NC(=O)[C@H](Cc1c[nH]cn1)NC(=O)[C@H](CCC(=O)O)NC(=O)[C@H](Cc1c[nH]cn1)NC(=O)[C@@H](NC(=O)[C@H](CCC(=O)O)NC(=O)[C@@H](N)CO)[C@@H](C)O)[C@@H](C)CC)C(=O)N[C@H](C(=O)N1CCC[C@H]1C(=O)N[C@@H](CC(=O)O)C(=O)N[C@H](C(=O)N[C@@H](CC(N)=O)C(=O)N1CCC[C@H]1C(=O)N[C@@H](C)C(=O)N[C@@H](Cc1c[nH]c2ccccc12)C(=O)N[C@@H](Cc1ccc(O)cc1)C(=O)N[C@@H](C)C(=O)N[C@@H](CO)C(=O)N[C@@H](CCCNC(=N)N)C(=O)NCC(=O)N[C@H](C(=O)N[C@@H](CCCNC(=N)N)C(=O)N1CCC[C@H]1C(=O)N[C@H](C(=O)NCC(=O)N[C@@H](CCCNC(=N)N)C(=O)N[C@@H](Cc1ccccc1)C(N)=O)C(C)C)[C@@H](C)CC)[C@@H](C)CC)[C@@H](C)O)C(=O)O [Analog 56] (H-SETHEHSMEIK([γGlu-Palmitoyl])TPDINPAWYASRGIRPVGRF-NH2) | 10 |
| 54 |  | 7.24 ± 0.13 |  | CCCCCCCCCCCCCCCC(=O)NCCCC[C@H](NC(=O)[C@@H]1CCCN1C(=O)[C@H](CC(N)=O)NC(=O)[C@@H](NC(=O)[C@H](CC(=O)O)NC(=O)[C@@H]1CCCN1C(=O)[C@@H](NC(=O)[C@H](CCCNC(=N)N)NC(=O)[C@@H](NC(=O)[C@H](CCC(=O)O)NC(=O)[C@H](CCSC)NC(=O)[C@H](CO)NC(=O)[C@H](Cc1c[nH]cn1)NC(=O)[C@H](CCCNC(=N)N)NC(=O)[C@H](Cc1c[nH]cn1)NC(=O)[C@@H](NC(=O)[C@H](CCCNC(=N)N)NC(=O)[C@@H](N)CO)[C@@H](C)O)[C@@H](C)CC)[C@@H](C)O)[C@@H](C)CC)C(=O)N[C@@H](Cc1c[nH]c2ccccc12)C(=O)N[C@@H](Cc1ccc(O)cc1)C(=O)N[C@@H](C)C(=O)N[C@@H](CO)C(=O)N[C@@H](CCCNC(=N)N)C(=O)NCC(=O)N[C@H](C(=O)N[C@@H](CCCNC(=N)N)C(=O)N1CCC[C@H]1C(=O)N[C@H](C(=O)NCC(=O)N[C@@H](CCCNC(=N)N)C(=O)N[C@@H](Cc1ccccc1)C(N)=O)C(C)C)[C@@H](C)CC [Analog 51] (H-SRTHRHSMEIRTPDINPK(Palmitoyl)WYASRGIRPVGRF-NH2) | 20 |
